From patent US12152016B2, “Aryl hydrocarbon receptor modulators and uses thereof” (Beth Israel Deaconess Medical Center, Inc., priority 2018, dated 2024)

Assays:
[1] = target: T1, aryl hydrocarbon receptor (AHR) (Mus musculus, UniProt P30561); test: XRE-driven luciferase reporter assay, mouse Hepa1c1c7; type: cell-based
T1 construct: Transfection was performed with 150 ng XRE-luciferase plasmid (Promega); endogenous in cells; host or cells: Hepa-1c1c7 (mouse hepatoma cell line)
Experimental: Human HepG2 or mouse Hepa-1c1c7 cells were seeded in 96 well opaque plates at 75,000 cells per well in full medium (DMEM+10% FBS) for 24 hours. Transfection was performed with 150 ng XRE-luciferase plasmid (Promega) with 4:1 Fugene to DNA ratio for 18 hours in Opti-MEM. Transfected cells were treated with AhR agonist (10^−5-10^−12) for 4.5 h in full medium. Cells were lysed and luciferase was activated using the Luciferase Assay System (Promega). Luminescence signals were measured with a FluroStar Omega microplate reader. Luminescence signals of compound treated groups were normalized to vehicle (DMSO) treated control and plotted as concentration dependent fold changes.

[2] = test system: DSS induced colitis; test: DSS induced colitis in mice; type: in vivo, C57BL/6 mice
Experimental: C57BL/6 (8-10 week, male) mice were administered drinking water supplemented with 3% (wt/vol) dextran sodium sulfate (DSS; MP Biomedicals) for 7 days followed by a 13 day recovery period with unsupplemented drinking water. Compound 109 or compound 108 were suspended in vehicle (1% HPMC and 1% polysorbate 80 in water) and given daily by oral gavage (1 ug/mouse in 100 uL), starting at day 0. Control mice were administered 100 μL vehicle. Body weight and disease activity index (DAI) were recorded daily. DAI was determined by combining scores of weight loss, stool consistency, blood in stool, activity, and appearance.^1 Scores were determined as follows: change in weight (0: <1%, 1: 1-10%, 2: 10-18%, 3: 18-20%); stool consistency (0: normal, 1: loose stools, 2: diarrhea); stool blood (0: negative, 1: trace blood, 2: bloody stool, 3: gross bleeding), activity (0: normal, 1: low activity, 2: hiding, 3: no response to gentle stimuli) and appearance (0: normal, 1: rigor, 2: hunched posture). On day 7 and day 11, mice were euthanized and colon were removed for length measurement, histology, RNA isolation, and lamina propria mononuclear cell (LPMC) extraction as detailed below.
Dissected colon were cut longitudinally and rolled using the Swiss roll method with the distal side in the center.^2,3 Colons were fixed overnight in 10% neutral buffered formalin, processed for paraffin embedding and sectioned at 5 μm thickness. To visualize and quantify the inflammatory response and crypt loss, hematoxylin and eosin staining (H&E) was performed. Briefly, sections were cleared with xylene, rehydrated through alcohol gradient, stained by hematoxylin, washed by acid and ammonium alcohol, rinsed in water and exposed to Eosin followed by dehydrating through graded alcohols and cleared in xylene. All sections were mounted using Permount (Fisher Scientific) and visualized using a BX41 microscope (Olympus). For histological scoring, 3 transverse sections of Swiss roll were chosen and 9 (100×) images were captured for each section. Images were analyzed for inflammation and crypt structure and scored by a blind observer as follows: inflammation (0: rare inflammatory cells in the lamina propria; 1: increased numbers of inflammatory cells in the lamina propria; 2: confluence of inflammatory cells extending in to the submucosa; 3: transmural extension of the inflammatory infiltrate.); crypt loss (0: none; 1: basal 1/3 damaged; 2: basal 2/3 damaged; 3: only surface epithelium intact; 4: entire crypt and epithelium lost). Inflammation and crypt loss were scored separately and multiplied by a factor of 1-4 to adjust for impacted area of tissue section (1: 0-25%; 2: 25.1-50% affected; 3: 50.1-75% affected; 4: >75% affected).^1,4 To examine goblet cell number, sections were stained by a commercial periodic acid-Schiff (PAS) and Alcian blue kit (Fisher Scientific). For quantification, 3 transverse sections of Swiss roll were chosen per colon and 5 random images at 200x were taken per section in the distal region of the colon. Goblet cell number was counted per image and normalized to colon length by a blind observer using image J.^5
Colonic epithelium and lamina propria cells were isolated as previously described.^6,7 Briefly, colons were dissected and washed with HBSS to remove fecal contents. Colon were opened longitudinally and cut into 2 cm segments. […]

[3] = target: T2, aryl hydrocarbon receptor (AHR) (Homo sapiens, UniProt P35869); test: XRE-driven luciferase reporter assay, human HepG2
T2 sequence (P35869 11-848): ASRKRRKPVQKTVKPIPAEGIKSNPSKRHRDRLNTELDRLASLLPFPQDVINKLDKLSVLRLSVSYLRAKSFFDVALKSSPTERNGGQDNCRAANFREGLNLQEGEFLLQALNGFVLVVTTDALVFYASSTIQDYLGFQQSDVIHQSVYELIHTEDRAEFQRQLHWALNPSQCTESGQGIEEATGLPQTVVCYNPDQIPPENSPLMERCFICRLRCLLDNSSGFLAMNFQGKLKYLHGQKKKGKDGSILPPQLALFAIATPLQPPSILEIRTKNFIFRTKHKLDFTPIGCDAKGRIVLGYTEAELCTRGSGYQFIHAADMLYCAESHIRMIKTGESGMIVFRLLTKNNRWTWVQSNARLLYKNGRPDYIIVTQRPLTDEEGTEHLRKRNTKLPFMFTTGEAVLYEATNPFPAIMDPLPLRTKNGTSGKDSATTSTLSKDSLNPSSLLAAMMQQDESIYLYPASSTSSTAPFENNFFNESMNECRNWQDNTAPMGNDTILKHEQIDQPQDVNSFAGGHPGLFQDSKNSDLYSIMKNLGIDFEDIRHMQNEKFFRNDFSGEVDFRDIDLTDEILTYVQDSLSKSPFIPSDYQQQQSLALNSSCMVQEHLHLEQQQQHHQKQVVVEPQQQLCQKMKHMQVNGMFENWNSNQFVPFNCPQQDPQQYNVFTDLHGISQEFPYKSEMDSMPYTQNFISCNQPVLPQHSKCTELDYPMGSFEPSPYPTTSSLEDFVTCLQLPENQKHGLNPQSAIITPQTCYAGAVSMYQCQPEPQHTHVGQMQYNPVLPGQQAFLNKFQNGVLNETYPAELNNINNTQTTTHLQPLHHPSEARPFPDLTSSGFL
Experimental: The Human HepG2 cell line is a human liver cancer cell line, and provide a relevant in vitro AHR activity model. These Hep2G cells have been modified to stably express an AHR-responsive (XRE) firefly luciferase reporter gene to give Hep2G-XRE cells. The expression of luciferase should primarily reflect AHR-dependent transcription controlled by XRE.
Transfected cells were treated with AhR agonist (10^−5-10^−12) for 4.5 h in full medium. Cells were lysed and luciferase was activated using the Luciferase Assay System (Promega). Luminescence signals were measured with a FluroStar Omega microplate reader. Luminescence signals of compound treated groups were normalized to vehicle (DMSO) treated control and plotted as concentration dependent fold changes.

T1 sequence (P30561 10-805 limits assumed): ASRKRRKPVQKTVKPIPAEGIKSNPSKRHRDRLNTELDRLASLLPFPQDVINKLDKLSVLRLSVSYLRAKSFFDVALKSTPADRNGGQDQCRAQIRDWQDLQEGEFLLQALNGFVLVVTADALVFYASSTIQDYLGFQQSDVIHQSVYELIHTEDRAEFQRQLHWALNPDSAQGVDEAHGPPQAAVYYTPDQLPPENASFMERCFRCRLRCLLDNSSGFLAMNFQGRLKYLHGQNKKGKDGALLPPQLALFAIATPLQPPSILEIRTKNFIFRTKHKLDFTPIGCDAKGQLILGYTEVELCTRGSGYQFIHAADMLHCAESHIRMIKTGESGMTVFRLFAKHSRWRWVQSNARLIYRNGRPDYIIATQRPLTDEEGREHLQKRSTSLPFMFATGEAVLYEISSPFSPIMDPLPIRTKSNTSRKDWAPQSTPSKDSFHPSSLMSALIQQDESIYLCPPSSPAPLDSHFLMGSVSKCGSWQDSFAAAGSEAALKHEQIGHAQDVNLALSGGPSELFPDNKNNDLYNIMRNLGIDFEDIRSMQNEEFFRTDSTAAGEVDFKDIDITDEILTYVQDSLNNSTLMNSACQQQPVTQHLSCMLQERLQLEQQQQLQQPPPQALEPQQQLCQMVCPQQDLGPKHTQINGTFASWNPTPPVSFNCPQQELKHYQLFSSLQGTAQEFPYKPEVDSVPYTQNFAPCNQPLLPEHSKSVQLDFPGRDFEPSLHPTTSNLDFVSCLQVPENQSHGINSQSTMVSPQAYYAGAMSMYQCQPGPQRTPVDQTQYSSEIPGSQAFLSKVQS
T1 sequence (P53762 whole entry partner): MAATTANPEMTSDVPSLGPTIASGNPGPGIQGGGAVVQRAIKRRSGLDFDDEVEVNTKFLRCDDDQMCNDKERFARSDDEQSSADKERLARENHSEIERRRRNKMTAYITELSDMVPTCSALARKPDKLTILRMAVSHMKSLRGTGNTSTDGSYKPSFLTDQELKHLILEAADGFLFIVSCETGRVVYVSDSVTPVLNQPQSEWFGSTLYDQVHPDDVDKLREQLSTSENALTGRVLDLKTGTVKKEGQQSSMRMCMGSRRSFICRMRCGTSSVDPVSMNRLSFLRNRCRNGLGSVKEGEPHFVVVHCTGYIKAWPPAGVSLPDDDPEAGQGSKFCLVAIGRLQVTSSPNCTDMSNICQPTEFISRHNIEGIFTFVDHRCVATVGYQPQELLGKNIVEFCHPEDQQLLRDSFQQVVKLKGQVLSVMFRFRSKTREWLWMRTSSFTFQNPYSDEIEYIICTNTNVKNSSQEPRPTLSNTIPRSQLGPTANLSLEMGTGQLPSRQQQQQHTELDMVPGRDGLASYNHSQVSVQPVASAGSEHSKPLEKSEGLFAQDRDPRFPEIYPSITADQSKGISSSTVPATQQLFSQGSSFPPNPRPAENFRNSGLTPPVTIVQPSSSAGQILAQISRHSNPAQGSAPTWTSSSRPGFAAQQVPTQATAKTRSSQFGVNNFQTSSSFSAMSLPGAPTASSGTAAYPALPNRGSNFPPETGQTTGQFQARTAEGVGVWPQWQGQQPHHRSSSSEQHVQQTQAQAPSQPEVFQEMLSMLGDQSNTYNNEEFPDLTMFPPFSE

N#Cc1cccc(C(=O)c2c[nH]c3ccccc23)n1 [Compound 108, 6-(1H-indole-3-carbonyl)pyridine-2-carbonitrile]
EC50 [1]: 94 nM | XRE luciferase Emax (fold) [1]: 86 fold | DSS induced colitis, overall effect ([2]; 3% DSS 7 days + 13 days recovery, 1 μg daily by oral gavage): attenuates DSS induced colitis | overall disease score ([2]; 3% DSS, 1 μg/day PO): improved the overall disease score | survival ([2]; 3% DSS, 1 μg/day PO): significantly improved survival | weight loss ([2]; 3% DSS, 1 μg/day PO): reduced weight loss | XRE luciferase Emax (fold) ([3]; Human HepG2, fold over vehicle): 74 fold | EC50 ([3]; XRE luciferase EC50, Human HepG2, least square curve fitting, >10,000 = does not reach 50% of Emax of ITE at 10 μM (highest concentration tested)): 2.8 nM
